These results are taken from US20140023611A1 (priority 2010, published 2014).

This assay concerns the target T1, rat NaP2b (SLC34A2) (Rattus norvegicus, UniProt Q9JJ09).
T1 construct: host or cells: HEK293
T1 sequence (Q9JJ09 1-695): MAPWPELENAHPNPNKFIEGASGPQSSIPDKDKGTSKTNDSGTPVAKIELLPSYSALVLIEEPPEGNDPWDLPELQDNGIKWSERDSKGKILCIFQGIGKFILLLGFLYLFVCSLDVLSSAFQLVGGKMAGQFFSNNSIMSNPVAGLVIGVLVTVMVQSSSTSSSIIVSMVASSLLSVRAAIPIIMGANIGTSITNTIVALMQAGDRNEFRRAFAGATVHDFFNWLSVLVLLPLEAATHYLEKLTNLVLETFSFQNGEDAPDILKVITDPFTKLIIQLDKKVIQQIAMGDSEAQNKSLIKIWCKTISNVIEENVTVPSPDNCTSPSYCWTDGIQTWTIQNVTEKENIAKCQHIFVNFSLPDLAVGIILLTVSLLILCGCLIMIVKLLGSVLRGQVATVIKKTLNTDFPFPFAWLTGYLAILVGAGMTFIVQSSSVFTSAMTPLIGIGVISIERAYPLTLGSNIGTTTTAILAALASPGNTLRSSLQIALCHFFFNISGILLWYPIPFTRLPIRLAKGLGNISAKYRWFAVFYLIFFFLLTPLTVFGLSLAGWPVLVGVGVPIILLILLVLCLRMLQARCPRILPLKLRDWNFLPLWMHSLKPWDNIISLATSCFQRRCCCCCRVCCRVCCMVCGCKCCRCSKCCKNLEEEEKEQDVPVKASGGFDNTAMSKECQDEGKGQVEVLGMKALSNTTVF
Put plainly: Inhibition of NaP2b-mediated Pi (33P) uptake in transfected HEK293 cells, rat NaP2b. The following applies: 33P Pi uptake, 0.1 mM phosphate, value given as pIC50 range. The format is cell-based. In short, it runs like this: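 HEK293 cells were transiently transfected with NaP2b cDNA using Lipofectamine and grown near confluence. Compounds were tested at twelve concentrations from 0.1 nM to 30 uM in duplicate, and 33P-phosphate uptake was counted by scintillation after lysis. Results are expressed as pIC50.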

Usually IC50 stands for the point on the concentration scale where inhibition reaches its midpoint. A high value points to weaker potency in that assay. With `CN(CCN1CCOCC1)C(=O)c1cccc(C(=O)Nc2ccc(N3CCCCC3)cc2-c2cc(C(=O)NCc3ccccc3OC(F)(F)F)ccn2)c1` [Example 123, N1-(2-(4-((2-(trifluoromethoxy)benzyl)carbamoyl)pyridin-2-yl)-4-(piperidin-1-yl)phenyl)-N3-methyl-N3-(2-morpholinoethyl)isophthalamide], the IC50 is 1 to 7.94 µM.

`COc1ccccc1CNC(=O)c1ccnc(-c2cc(N3CCCCC3)ccc2NC(=O)c2cccc(C(=O)N(C)CCN3CCOCC3)c2)c1` [Example 124, N1-(2-(4-((2-methoxybenzyl)carbamoyl)pyridin-2-yl)-4-(piperidin-1-yl)phenyl)-N3-methyl-N3-(2-morpholinoethyl)isophthalamide]: the IC50 was 1 to 7.94 µM. Next, `COc1ccc(C(F)(F)F)cc1CNC(=O)c1ccnc(-c2cc(N3CCCCC3)ccc2NC(=O)c2cccc(C(=O)N(C)CCN3CCOCC3)c2)c1` [Example 125, N1-(2-(4-((2-methoxy-5-(trifluoromethyl)benzyl)carbamoyl)pyridin-2-yl)-4-(piperidin-1-yl)phenyl)-N3-methyl-N3-(2-morpholinoethyl)isophthalamide]: 1 to 7.94 µM. Next, `CCCCN(C)c1ccc(NC(=O)c2cccc(C(=O)N(C)CCN3CCOCC3)c2)c(-c2cc(C(=O)NCc3cccc(C(F)(F)F)c3)ccn2)c1` [Example 127, N1-(4-(butyl(methyl)amino)-2-(4-(3-(trifluoromethyl)benzylcarbamoyl)pyridin-2-yl)phenyl)-N3-methyl-N3-(2-morpholinoethyl)isophthalamide]: 10 to 31.6 µM; `CCCN(CC)c1ccc(NC(=O)c2cccc(C(=O)N(C)CCN3CCOCC3)c2)c(-c2cc(C(=O)NCc3cccc(C(F)(F)F)c3)ccn2)c1` [Example 128, N1-(2-(4-((3-(trifluoromethyl)benzyl)carbamoyl)pyridin-2-yl)-4-(ethyl(propyl)amino)phenyl)-N3-methyl-N3-(2-morpholinoethyl)isophthalamide]: 1 to 7.94 µM. Next, `CCCN(C)c1ccc(NC(=O)c2cccc(C(=O)N(C)CCN3CCOCC3)c2)c(-c2cc(C(=O)NCc3cccc(C(F)(F)F)c3)ccn2)c1` [Example 129, N^1-methyl-N^3-(4-(methyl(propyl)amino)-2-(4-((3-(trifluoromethyl)benzyl)carbamoyl)pyridin-2-yl)phenyl)-N-(2-morpholinoethyl)isophthalamide]: 1 to 7.94 µM; `CN(CCN1CCOCC1)C(=O)c1cccc(C(=O)Nc2ccc(C(F)(F)F)cc2-c2cc(C(=O)N[C@H]3CCCc4ccccc43)ccn2)c1` [Example 130, (S)—N1-methyl-N1-(2-morpholinoethyl)-N3-(2-(4-(1,2,3,4-tetrahydronaphthalen-1-ylcarbamoyl)pyridin-2-yl)-4-(trifluoromethyl)phenyl)isophthalamide]: 1 to 7.94 µM; `CN(CCN1CCOCC1)C(=O)c1cccc(C(=O)Nc2ccc(OC3CCCC3)cc2-c2cc(C(=O)N[C@H]3CCCc4ccccc43)ccn2)c1` [Example 133, (S)—N^1-(4-(cyclopentyloxy)-2-(4-((1,2,3,4-tetrahydronaphthalen-1-yl)carbamoyl)pyridin-2-yl)phenyl)-N^3-methyl-N^3-(2-morpholinoethyl)isophthalamide]: 1 to 7.94 µM. `O=C(O)COc1cccc(SCc2cccc(C(=O)Nc3ccc(N4CCCCC4)cc3-c3cc(C(=O)NCc4cccc(C(F)(F)F)c4)ccn3)c2)c1` [Example 134, 2-(3-(3-(4-(piperidin-1-yl)-2-(4-(3-(trifluoromethyl)benzylcarbamoyl)pyridin-2-yl)phenylcarbamoyl)benzylthio)phenoxy)acetic acid] gave a half-inhibitory concentration (IC50) of 1 to 7.94 µM. `CN(CCOCCOCCOCCC(=O)O)C(=O)c1cccc(SCc2cccc(C(=O)Nc3ccc(N4CCCCC4)cc3-c3cc(C(=O)NCc4cccc(C(F)(F)F)c4)ccn3)c2)c1` [Example 135, 3-(2-(2-(2-(N-methyl-3-(3-(4-(piperidin-1-yl)-2-(4-(3-(trifluoromethyl)benzylcarbamoyl)pyridin-2-yl)phenylcarbamoyl)benzylthio)benzamido)ethoxy)ethoxy)ethoxy)propanoic acid] showed an IC50 of 1 to 7.94 µM. To `CN(CCN1CCOCC1)C(=O)Cc1cccc(SCc2cccc(C(=O)Nc3ccc(N4CCCCC4)cc3-c3cc(C(=O)NCc4cccc(C(F)(F)F)c4)ccn3)c2)c1` [Example 136, 2-(2-(3-((3-(2-(methyl(2-morpholinoethyl)amino)-2-oxoethyl)phenylthio)methyl)benzamido)-5-(piperidin-1-yl)phenyl)-N-(3-(trifluoromethyl)benzyl)isonicotinamide] belongs 1 to 7.94 µM; to `O=C(O)CNC(=O)Cc1cccc(SCc2cccc(C(=O)Nc3ccc(N4CCCCC4)cc3-c3cc(C(=O)NCc4cccc(C(F)(F)F)c4)ccn3)c2)c1` [Example 139], 10 to 31.6 µM. Next, `O=C(O)CCNC(=O)Cc1cccc(SCc2cccc(C(=O)Nc3ccc(N4CCCCC4)cc3-c3cc(C(=O)NCc4cccc(C(F)(F)F)c4)ccn3)c2)c1` [Example 140]: 1 to 7.94 µM; `O=C(O)CN(CCOCCO)C(=O)CCOCCOCCOCCOCCSCc1cccc(C(=O)Nc2ccc(N3CCCCC3)cc2-c2cc(C(=O)NCc3cccc(C(F)(F)F)c3)ccn2)c1` [Example 145, 18-(2-(2-hydroxyethoxy)ethyl)-17-oxo-1-(3-(4-(piperidin-1-yl)-2-(4-(3-(trifluoromethyl)benzylcarbamoyl)pyridin-2-yl)phenylcarbamoyl)phenyl)-5,8,11,14-tetraoxa-2-thia-18-azaicosan-20-oic acid]: 10 to 31.6 µM; `CC(=O)N1CCCN(C(=O)CCOCCOCCOCCOCCSCc2cccc(C(=O)Nc3ccc(N4CCCCC4)cc3-c3cc(C(=O)NCc4cccc(C(F)(F)F)c4)ccn3)c2)CC1` [Example 153, 2-(2-(3-(17-(4-acetyl-1,4-diazepan-1-yl)-17-oxo-5,8,11,14-tetraoxa-2-thiaheptadecyl)benzamido)-5-(piperidin-1-yl)phenyl)-N-(3-(trifluoromethyl)benzyl)isonicotinamide]: 10 to 31.6 µM. Next, `O=C(NCc1cccc(C(F)(F)F)c1)c1ccnc(-c2cc(N3CCCCC3)ccc2NC(=O)c2cccc(CSCCOCCOCCOCCOCCC(=O)N3CCC(N4CCOCC4)CC3)c2)c1` [Example 154, 2-(2-(3-(17-(4-morpholinopiperidin-1-yl)-17-oxo-5,8,11,14-tetraoxa-2-thiaheptadecyl)benzamido)-5-(piperidin-1-yl)phenyl)-N-(3-(trifluoromethyl)benzyl)isonicotinamide]: 10 to 31.6 µM.

`O=C(O)CCOCCOCCOCCNC(=O)CCOCCOCCOCCOCCSCc1cccc(C(=O)Nc2ccc(N3CCCCC3)cc2-c2cc(C(=O)NCc3cccc(C(F)(F)F)c3)ccn2)c1` [Example 155, 17-oxo-1-(3-(4-(piperidin-1-yl)-2-(4-(3-(trifluoromethyl)benzylcarbamoyl)pyridin-2-yl)phenylcarbamoyl)phenyl)-5,8,11,14,21,24,27-heptaoxa-2-thia-18-azatriacontan-30-oic acid] had a concentration for half-maximal inhibition (IC50) of 10 to 31.6 µM.

With `O=C(NCc1cccc(C(F)(F)F)c1)c1ccnc(-c2cc(N3CCCCC3)ccc2NC(=O)c2cccc(Cn3ccc4c(C(=O)NCCOCCOCCO)cccc43)c2)c1` [Example 180, N-(2-(2-(2-hydroxyethoxy)ethoxy)ethyl)-1-(3-(4-(piperidin-1-yl)-2-(4-(3-(trifluoromethyl)benzylcarbamoyl)pyridin-2-yl)phenylcarbamoyl)benzyl)-1H-indole-4-carboxamide], the IC50 was 1 to 7.94 µM.

`O=C(O)c1cccc(Cn2ccnc2-c2cccc(C(=O)Nc3ccc(N4CCCCC4)cc3-c3cc(C(=O)NCc4cccc(C(F)(F)F)c4)ccn3)c2)c1` [Example 184, 3-((2-(3-(4-(piperidin-1-yl)-2-(4-(3-(trifluoromethyl)benzylcarbamoyl)pyridin-2-yl)phenylcarbamoyl)phenyl)-1H-imidazol-1-yl)methyl)benzoic acid] gave an IC50 of 1 to 7.94 µM. To `O=C(O)c1cccc(CSc2cccc(C(=O)Nc3ccc(N4CCCCC4)cc3-c3cc(C(=O)NCc4cccc(C(F)(F)F)c4)ccn3)c2)c1` [Example 186, 3-((3-(4-(piperidin-1-yl)-2-(4-(3-(trifluoromethyl)benzylcarbamoyl)pyridin-2-yl)phenylcarbamoyl)phenylthio)methyl)benzoic acid] belongs 1 to 7.94 µM; to `CCN(CC)c1ccc(NC(=O)c2cccc(C(=O)N3CCC[C@H](C(=O)NCCOC)C3)c2)c(-c2cc(C(=O)NCc3cccc(C(F)(F)F)c3)ccn2)c1` [Example 189, (S)-2-(5-(diethylamino)-2-(3-(3-((2-methoxyethyl)carbamoyl)piperidine-1-carbonyl)benzamido)phenyl)-N-(3-(trifluoromethyl)benzyl)isonicotinamide], 1 to 7.94 µM.
